Test results reported in the NIST ThermoML archive (doi:10.1021/je050089u).

Assay: excess molar enthalpy (molar enthalpy of mixing); xn = mol fraction of the nth substance listed
Settings: Fluid (supercritical or subcritical phases)

COC(=O)OC [dimethyl carbonate] + O=C=O
excess molar enthalpy [kJ/mol]
Settings	303.15 K	308.15 K
5000 kPa, x2 = 0.1537	–	-1.97
5000 kPa, x2 = 0.2239	–	-2.76
5000 kPa, x2 = 0.2901	–	-3.58
5000 kPa, x2 = 0.412	–	-5
5000 kPa, x2 = 0.4682	–	-5.67
5000 kPa, x2 = 0.5215	–	-6.24
5000 kPa, x2 = 0.6205	–	-7.26
5000 kPa, x2 = 0.7103	–	-8.06
5000 kPa, x2 = 0.7189	–	-8.1
5000 kPa, x2 = 0.7273	–	-7.87
5000 kPa, x2 = 0.7923	–	-5.84
5000 kPa, x2 = 0.8674	–	-3.58
5000 kPa, x2 = 0.9364	–	-1.63
5000 kPa, x2 = 0.9877	–	-0.022
5000 kPa, x2 = 0.9939	–	0.112
5500 kPa, x2 = 0.1547	–	-1.84
5500 kPa, x2 = 0.2917	–	-3.5
5500 kPa, x2 = 0.3544	–	-4.28
5500 kPa, x2 = 0.4138	–	-4.86
5500 kPa, x2 = 0.47	–	-5.5
5500 kPa, x2 = 0.5234	–	-6.06
5500 kPa, x2 = 0.574	–	-6.56
5500 kPa, x2 = 0.6222	–	-7.06
5500 kPa, x2 = 0.6681	–	-7.44
5500 kPa, x2 = 0.7119	–	-7.91
5500 kPa, x2 = 0.7536	–	-8.11
5500 kPa, x2 = 0.7698	–	-8.21
5500 kPa, x2 = 0.7935	–	-7.47
5500 kPa, x2 = 0.8317	–	-6.09
5500 kPa, x2 = 0.8682	–	-4.67
5500 kPa, x2 = 0.9368	–	-2.08
6000 kPa, x2 = 0.1556	–	-1.78
6000 kPa, x2 = 0.2931	–	-3.31
6000 kPa, x2 = 0.4154	–	-4.7
6000 kPa, x2 = 0.4717	–	-5.23
6000 kPa, x2 = 0.5757	–	-6.27
6000 kPa, x2 = 0.6238	–	-6.71
6000 kPa, x2 = 0.7132	–	-7.4
6000 kPa, x2 = 0.7549	–	-7.71
6000 kPa, x2 = 0.7946	–	-7.98
6000 kPa, x2 = 0.7947	-7.93	–
6000 kPa, x2 = 0.8326	–	-8.09
6000 kPa, x2 = 0.8327	-8.09	–
6000 kPa, x2 = 0.869	–	-6.29
6000 kPa, x2 = 0.8691	-8.19	–
6000 kPa, x2 = 0.8901	-8.17	–
6000 kPa, x2 = 0.897	-8.11	–
6000 kPa, x2 = 0.9039	-7.63	–
6000 kPa, x2 = 0.9372	-4.94	-2.99
6000 kPa, x2 = 0.9692	–	-1.15
6000 kPa, x2 = 0.9693	-2.29	–
6500 kPa, x2 = 0.0807	–	-0.916
6500 kPa, x2 = 0.1564	–	-1.69
6500 kPa, x2 = 0.2275	–	-2.44
6500 kPa, x2 = 0.2944	–	-3.14
6500 kPa, x2 = 0.3574	–	-3.88
6500 kPa, x2 = 0.4169	–	-4.4
6500 kPa, x2 = 0.4733	–	-5.01
6500 kPa, x2 = 0.5266	–	-5.46
6500 kPa, x2 = 0.5772	–	-5.91
6500 kPa, x2 = 0.6253	–	-6.34
6500 kPa, x2 = 0.671	–	-6.74
6500 kPa, x2 = 0.7145	–	-7
6500 kPa, x2 = 0.756	–	-7.33
6500 kPa, x2 = 0.7956	–	-7.54
6500 kPa, x2 = 0.8335	–	-7.65
6500 kPa, x2 = 0.8697	–	-7.73
6500 kPa, x2 = 0.8837	–	-7.71
6500 kPa, x2 = 0.9044	–	-6.72
6500 kPa, x2 = 0.9376	–	-4.29
6500 kPa, x2 = 0.9694	–	-1.97
7000 kPa, x2 = 0.0812	–	-0.87
7000 kPa, x2 = 0.1572	–	-1.63
7000 kPa, x2 = 0.2285	–	-2.3
7000 kPa, x2 = 0.2956	–	-3.02
7000 kPa, x2 = 0.3587	–	-3.59
7000 kPa, x2 = 0.4184	–	-4.19
7000 kPa, x2 = 0.4747	–	-4.63
7000 kPa, x2 = 0.528	–	-5.14
7000 kPa, x2 = 0.5786	–	-5.51
7000 kPa, x2 = 0.6266	–	-5.93
7000 kPa, x2 = 0.6723	–	-6.25
7000 kPa, x2 = 0.7157	–	-6.53
7000 kPa, x2 = 0.7571	–	-6.76
7000 kPa, x2 = 0.7966	–	-6.91
7000 kPa, x2 = 0.8343	–	-7.05
7000 kPa, x2 = 0.8703	–	-7.14
7000 kPa, x2 = 0.9049	–	-7.05
7000 kPa, x2 = 0.9249	–	-6.95
7000 kPa, x2 = 0.9443	–	-5.65
7000 kPa, x2 = 0.9507	–	-5.19
7000 kPa, x2 = 0.9697	–	-3.21
7500 kPa, x2 = 0.0816	–	-0.744
7500 kPa, x2 = 0.1579	–	-1.42
7500 kPa, x2 = 0.2294	–	-2.09
7500 kPa, x2 = 0.2967	–	-2.65
7500 kPa, x2 = 0.36	–	-3.23
7500 kPa, x2 = 0.4197	–	-3.7
7500 kPa, x2 = 0.476	–	-4.17
7500 kPa, x2 = 0.5294	–	-4.55
7500 kPa, x2 = 0.5799	–	-4.91
7500 kPa, x2 = 0.6279	–	-5.21
7500 kPa, x2 = 0.6734	–	-5.51
7500 kPa, x2 = 0.7168	–	-5.74
7500 kPa, x2 = 0.7581	–	-5.94
7500 kPa, x2 = 0.7974	–	-6.01
7500 kPa, x2 = 0.835	–	-6.12
7500 kPa, x2 = 0.871	–	-6.16
7500 kPa, x2 = 0.9053	–	-6.17
7500 kPa, x2 = 0.9382	–	-5.94
7500 kPa, x2 = 0.9698	–	-5.21
7500 kPa, x2 = 0.9759	–	-4.29
